pIC50: −log10 of the molar value.
What was measured:
cdk4/D = cdk4/D (Homo sapiens, UniProt P11802); experiment: Cyclin-Dependent Kinase 4 (cdk4) Assay; type: biochemical; settings: read-out: cdk4/D IC50
Cdk5/p25 = Cdk5/p25 (Homo sapiens, UniProt Q00535); experiment: Cyclin-Dependent Kinase 5 High Throughput Screening (cdk5-HTS) Assay; type: biochemical; settings: high throughput screen
Procedure, shortened: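 IC50 determined from 33P incorporation into GST-RbCOOH captured on glutathione plates and read by scintillation counting. Reaction: 1.0 μg/mL Cdk5/p25, 20 μM [γ33P]ATP, pH 7.4 Tris buffer with MgCl2 and DTT, 30 min at room temperature, stopped with EDTA.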

cdk2/cyclinE = cdk2/cyclinE (Homo sapiens, UniProt P24941); experiment: Cyclin-Dependent Kinase Assay cdk2/cyclinE; settings: cdk2/E IC50
Procedure: Cyclin-Dependent Kinase Assays (cdk2/cyclinE, cdk2/cyclinA, cdc2/cyclinB)
All components except the ATP were added to the wells, and the plate was placed on a plate mixer for 2 minutes. The reaction was begun by addition of [^32P]ATP, and the plate was incubated at 25° C. for 15 minutes. The reaction was terminated by addition of 0.1 mL of 20% TCA. The plate was kept at 4° C. for at least 1 hour to allow the substrate to precipitate. The wells were then washed five times with 0.2 mL of 10% TCA and ^32p incorporation determined with a beta plate counter (Wallac Inc., Gaithersburg, Md.).

cdk2/cyclinA = cdk2/cyclinA (Homo sapiens, UniProt P24941); experiment: Cyclin-Dependent Kinase Assay cdk2/cyclinA; settings: cdk2/A IC50
cdc2/cyclinB = cdc2/cyclinB (Homo sapiens, UniProt P06493); experiment: Cyclin-Dependent Kinase Assay cdc2/cyclinB
cdc2/cyclinB, sequence (P06493 whole entry): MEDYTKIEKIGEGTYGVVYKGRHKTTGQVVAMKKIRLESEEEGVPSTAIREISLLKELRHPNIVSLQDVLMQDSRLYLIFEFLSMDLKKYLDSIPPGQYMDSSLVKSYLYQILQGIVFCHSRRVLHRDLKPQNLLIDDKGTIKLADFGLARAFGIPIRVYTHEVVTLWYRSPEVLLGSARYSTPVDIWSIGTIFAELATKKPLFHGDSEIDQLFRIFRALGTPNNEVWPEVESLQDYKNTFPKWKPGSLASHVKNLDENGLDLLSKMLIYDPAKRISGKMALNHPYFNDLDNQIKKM
cdc2/cyclinB, sequence (P14635 whole entry, further chain): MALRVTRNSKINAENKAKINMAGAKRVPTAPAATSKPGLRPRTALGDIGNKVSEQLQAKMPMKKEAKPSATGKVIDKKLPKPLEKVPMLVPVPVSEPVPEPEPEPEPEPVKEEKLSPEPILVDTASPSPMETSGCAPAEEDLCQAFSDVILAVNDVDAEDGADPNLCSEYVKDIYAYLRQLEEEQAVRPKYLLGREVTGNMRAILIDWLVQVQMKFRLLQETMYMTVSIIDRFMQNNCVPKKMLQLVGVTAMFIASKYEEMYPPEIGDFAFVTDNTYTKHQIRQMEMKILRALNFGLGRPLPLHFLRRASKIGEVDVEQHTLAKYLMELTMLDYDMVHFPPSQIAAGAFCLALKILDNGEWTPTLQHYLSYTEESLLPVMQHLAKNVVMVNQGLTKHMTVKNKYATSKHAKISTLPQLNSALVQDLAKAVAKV

cdk4/D, sequence (P11802 whole entry): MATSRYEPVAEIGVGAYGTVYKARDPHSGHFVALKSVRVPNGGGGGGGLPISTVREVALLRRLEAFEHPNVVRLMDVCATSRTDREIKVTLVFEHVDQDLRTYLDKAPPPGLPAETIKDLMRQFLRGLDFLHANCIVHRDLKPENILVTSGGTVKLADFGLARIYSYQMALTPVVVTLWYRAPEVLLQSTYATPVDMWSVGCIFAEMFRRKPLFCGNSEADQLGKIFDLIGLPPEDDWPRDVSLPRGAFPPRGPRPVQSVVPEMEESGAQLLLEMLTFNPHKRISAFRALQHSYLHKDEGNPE
cdk4/D, sequence (P24385 whole entry, further chain): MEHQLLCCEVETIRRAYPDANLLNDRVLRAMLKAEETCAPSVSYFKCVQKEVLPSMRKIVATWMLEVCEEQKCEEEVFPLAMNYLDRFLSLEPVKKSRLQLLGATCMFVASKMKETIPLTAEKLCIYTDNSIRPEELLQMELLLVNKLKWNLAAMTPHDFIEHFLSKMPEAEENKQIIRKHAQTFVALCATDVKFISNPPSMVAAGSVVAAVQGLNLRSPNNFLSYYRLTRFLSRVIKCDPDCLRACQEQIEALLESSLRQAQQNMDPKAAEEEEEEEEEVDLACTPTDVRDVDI

| Compound | pIC50 (cdk4/D) | pIC50 (Cdk5/p25) | pIC50 (cdk2/cyclinE) | pIC50 (cdk2/cyclinA) | pIC50 (cdc2/cyclinB) |
| --- | --- | --- | --- | --- | --- |
| CC(C)n1c(=O)ccc2cnc(Nc3cccc([N+](=O)[O-])c3)nc21 [Example 406, 8-Isopropyl-2-(3-nitro-phenylamino)-8H-pyrido[2,3-d]pyrimidin-7-one] | 6.59 | 7.28 | 7.02 | 6.80 | 6.95 |
| CC(C)n1c(=O)ccc2cnc(Nc3ccc(F)c(C(F)(F)F)c3)nc21 [Example 407, 2-(4-Fluoro-3-trifluoromethyl-phenylamino)-8-isopropyl-8H-pyrido[2,3-d]pyrimidin-7-one] | 6.01 | 7.25 | 6.17 | 6.34 | 6.49 |
| Cc1cc(Nc2ncc3ccc(=O)n(C(C)C)c3n2)ccc1F [Example 408, 2-(4-Fluoro-3-methyl-phenylamino)-8-isopropyl-8H1-pyrido[2,3-d]pyrimidin-7-one] | 6.89 | 7.89 | 6.96 | 6.82 | 6.72 |
| CC(C)n1c(=O)ccc2cnc(Nc3ccc4[nH]ccc4c3)nc21 [Example 409, 2-(1H-Indol-5-ylamino)-8-isopropyl-8H-pyrido[2,3-d]pyrimidin-7-one] | 7.36 | 7.27 | 7.00 | 6.59 | 6.59 |
| CC(C)n1c(=O)ccc2cnc(Nc3ccc4[nH]nnc4c3)nc21 [Example 410, 2-(1H-Benzotriazol-5-ylamino)-8-isopropyl-8H-pyrido[2,3-d]pyrimidin-7-one] | 6.82 | 7.35 | 7.06 | 6.87 | 6.61 |
| CC(C)n1c(=O)ccc2cnc(Nc3ccc(NC(=O)OC(C)(C)C)cc3)nc21 [Example 411, [4-(8-Isopropyl-7-oxo-7,8-dihydro-pyrido[2,3-d]pyrimidin-2-ylamino)-phenyl]-carbamic acid tert-butyl ester] | 6.74 | 6.75 | 6.70 | 6.58 | 6.56 |
| CC(C)n1c(=O)ccc2cnc(Nc3cc(Cl)c(O)c(Cl)c3)nc21 [Example 412, 2-(3,5-Dichloro-4-hydroxy-phenylamino)-8-isopropyl-8H-pyrido[2,3-d]pyrimidin-7-one] | 5.70 | 6.56 | 6.29 | 6.15 | 6.15 |
| CC(C)n1c(=O)ccc2cnc(Nc3ccc(O)c(Cl)c3)nc21 [Example 413, 2-(3-Chloro-4-hydroxy-phenylamino)-8-isopropyl-8H-pyrido[2,3-d]pyrimidin-7-one] | 6.74 | 7.36 | 7.28 | 6.86 | 7.17 |
| CC(=O)Nc1ccc(Nc2ncc3ccc(=O)n(C(C)C)c3n2)cc1 [Example 414, N-[4-(8-Isopropyl-7-oxo-7,8-dihydro-pyrido[2,3-d]pyrimidin-2-ylamino)-phenyl]-acetamide] | 7.29 | 7.41 | 7.04 | 6.81 | 6.78 |
| CCCCn1c(=O)ccc2cnc(Nc3cc([N+](=O)[O-])ccc3F)nc21 [Example 415, 8-Butyl-2-(2-fluoro-5-nitro-phenylamino)-8H-pyrido[2,3-d]pyrimidin-7-one] | 6.31 | 6.54 | 6.62 | 5.96 | 5.96 |
| COc1cc(Nc2ncc3ccc(=O)n(C(C)C)c3n2)cc(OC)c1OC [Example 417, 8-Isopropyl-2-(3,4,5-trimethoxy-phenylamino)-8H-pyrido[2,3-d]pyrimidin-7-one] | 5.47 | 6.77 | 6.23 | 6.06 | 6.06 |
| CC(C)n1c(=O)ccc2cnc(Nc3ccc(S(N)(=O)=O)cc3)nc21 [Example 418, 4-(8-Isopropyl-7-oxo-7,8-dihydro-pyrido[2,3-d]pyrimidin-2-ylamino)-benzenesulfonamide] | 6.89 | 7.82 | 7.57 | 7.48 | 7.05 |
| CC(C)n1c(=O)ccc2cnc(Nc3ccc(Cl)c(C(F)(F)F)c3)nc21 [Example 421, 2-(4-Chloro-3-trifluoromethyl-phenylamino)-8-isopropyl-8H-pyrido[2,3-d]pyrimidin-7-one] | 5.72 | 7.08 | 5.41 | 6.04 | 6.15 |
| COc1ccc(Nc2ncc3ccc(=O)n(C(C)C)c3n2)cc1F [Example 422, 2-(3-Fluoro-4-methoxy-phenylamino)-8-isopropyl-8H-pyrido[2,3-d]pyrimidin-7-one] | 7.18 | 8.01 | 6.77 | 6.77 | 6.80 |
| CC(=O)Nc1cc(Nc2ncc3ccc(=O)n(C(C)C)c3n2)ccc1C#N [Example 424, N-[2-Cyano-5-(8-isopropyl-7-oxo-7,8-dihydro-pyrido[2,3-d]pyrimidin-2-ylamino)-phenyl]-acetamide] | 7.00 | 7.41 | 6.44 | 6.34 | 6.28 |
| COc1cc(Nc2ncc3ccc(=O)n(C(C)C)c3n2)cc(C(F)(F)F)c1 [Example 425, 8-Isopropyl-2-(3-methoxy-5-trifluoromethyl-phenylamino)-8H-pyrido[2,3-d]pyrimidin-7-one] | 6.07 | 6.74 | 6.11 | 5.74 | 6.31 |
| CC(C)n1c(=O)ccc2cnc(Nc3ccc(F)c(F)c3)nc21 [Example 426, 2-(3,4-Difluoro-phenylamino)-8-isopropyl-8H-pyrido[2,3-d]pyrimidin-7-one] | 7.24 | 7.68 | 6.89 | 6.68 | 6.51 |
| Cc1ccc(Nc2ncc3ccc(=O)n(C(C)C)c3n2)cc1I [Example 427, 2-(3-Iodo-4-methyl-phenylamino)-8-isopropyl-8H-pyrido[2,3-d]pyrimidin-7-one] | 6.85 | 7.68 | 6.80 | 6.23 | 6.80 |
| CC(C)n1c(=O)ccc2cnc(Nc3cc(Cl)cc(Cl)c3)nc21 [Example 429, 2-(3,5-Dichloro-phenylamino)-8-isopropyl-8H-pyrido[2,3-d]pyrimidin-7-one] | 6.25 | 7.41 | 6.92 | 6.07 | 6.64 |
| CC(C)n1c(=O)ccc2cnc(Nc3cccc(S(N)(=O)=O)c3)nc21 [Example 430, 3-(8-Isopropyl-7-oxo-7,8-dihydro-pyrido[2,3-d]pyrimidin-2-ylamino)-benzenesulfonamide] | 7.46 | 7.82 | 7.02 | 6.62 | 6.74 |
| CC(C)n1c(=O)ccc2cnc(Nc3ccc4c(c3)CCCC4=O)nc21 [Example 431, 8-Isopropyl-2-(5-oxo-5,6,7,8-tetrahydro-naphthalen-2-ylamino)-8H-pyrido[2,3-d]pyrimidin-7-one] | 6.85 | 7.64 | 6.92 | 6.52 | 6.77 |
| CC(=O)N(C)c1ccc(Nc2ncc3ccc(=O)n(C(C)C)c3n2)cc1 [Example 432, N-[4-(8-Isopropyl-7-oxo-7,8-dihydro-pyrido[2,3-d]pyrimidin-2-ylamino)-phenyl]-N-methyl-acetamide] | 6.82 | 7.22 | 6.41 | 6.38 | 6.27 |
| CC(C)n1c(=O)ccc2cnc(Nc3ccc(C#N)cc3)nc21 [Example 433, 4-(8-Isopropyl-7-oxo-7,8-dihydro-pyrido[2,3-d]pyrimidin-2-ylamino)-benzonitrile] | 6.60 | 7.12 | 6.64 | 6.80 | 6.32 |
| Cc1ccc(Nc2ncc3ccc(=O)n(C(C)C)c3n2)cc1C [Example 434, 2-(3,4-Dimethyl-phenylamino)-8-isopropyl-8H-pyrido[2,3-d]pyrimidin-7-one] | 6.46 | 7.27 | 6.28 | 6.40 | 6.33 |
| CC(C)n1c(=O)ccc2cnc(Nc3ccc4cn[nH]c4c3)nc21 [Example 438, 2-(1H-Indazol-6-ylamino)-8-isopropyl-8H-pyrido[2,3-d]pyrimidin-7-one] | 5.95 | 6.67 | 6.16 | 6.42 | 6.02 |
| CC(=O)Nc1cc(Nc2ncc3ccc(=O)n(C(C)C)c3n2)ccc1C [Example 440, N-[5-(8-Isopropyl-7-oxo-7,8-dihydro-pyrido[2,3-d]pyrimidin-2-ylamino)-2-methyl-phenyl]-acetamide] | 6.82 | 6.36 | 5.82 | 5.96 | 5.85 |
| Cc1cc(Nc2ncc3ccc(=O)n(C(C)C)c3n2)cc(C)c1O [Example 441, 2-(4-Hydroxy-3,5-dimethyl-phenylamino)-8-isopropyl-8H-pyrido[2,3-d]pyrimidin-7-one] | 6.05 | 6.82 | 6.33 | 6.54 | 6.54 |
| Cc1cc(Nc2ncc3ccc(=O)n(C(C)C)c3n2)ccc1Br [Example 442, 2-(4-Bromo-3-methyl-phenylamino)-8-isopropyl-8H-pyrido[2,3-d]pyrimidin-7-one] | 5.44 | 6.36 | 5.44 | 5.77 | 5.72 |
